Assay [1] deals with c-MET kinase (Homo sapiens (Human), UniProt P08581). Nature of the assay: Assay of small molecular compounds for inhibiting the activity of c-MET kinase (LANCE TR-FRET). Type of assay: biochemical. The conditions noted are these: c-MET tyrosine kinase, 60 min reaction. As to the method: Biological Example 1. Assay of Small Molecular Compounds for Inhibiting the Activity of c-MET Kinase
(§1) The assay is based on the LANCE TR-FRET technology of Perkin Elmer Inc., and the assay method is as follows:
(§2) 1. Dilution of compounds: a total of 11 concentrations were obtained using a 3-fold gradient dilution from the highest concentration of 2500 nM (the maximum final concentration of the drug used in this assay was 2500 nM, and the minimum final concentration was 0.042 nM).
(§3) 2. 2.5 μL of the gradient-diluted compounds were taken with a transfer pipette to a 384-well plate.
3. Addition of enzyme: 5 μL of 2× c-MET kinase solution (concentration was 2 nM) was taken with a transfer pipette to the corresponding reaction well of the 384-well plate, mixed well and pre-reacted at room temperature for 5 minutes.
4. 2.5 μL 4× Ultra ULight™-JAK-1 (Tyr1023) Peptide (concentration was 400 nM)/ATP (concentration was 40 μM) mixture was taken with a transfer pipette to the corresponding reaction well of the 384-well plate.
(§4) 5. Negative control: 2.5 μL/well 4× substrate/ATP mixture and 7.5 μL 1× Kinase Assay Buffer were added to the wells of the 384-well plate.
6. Positive control: 2.5 μL/well 4× substrate/ATP mixture, 2.5 μL/well 1× Kinase Assay Buffer containing 16% DMSO, and 5 µL/well 2× c-MET kinase solution were added to the 384-well plate. The final concentration of DMSO in the reaction system was 4%.
(§5) 7. The mixture was mixed well and then centrifuged and reacted at room temperature in dark for 60 min.
(§6) 8. Termination of the enzymatic reaction: 5 μL of 4× stop solution was taken with a transfer pipette to the wells of the 384-well plate, mixed and then centrifuged, and reacted at room temperature for 5 min.
(§7) 9. Development of the reaction: 5 μL of 4× detection solution was taken with a transfer pipette to the wells of the 384-well plate for color development, and the mixture was mixed and then centrifuged and reacted at room temperature for 60 min.
(§8) 10. The 384-well plate was placed into the Envision plate reader and the signal was detected using the appropriate program.
11. […]
For orientation: In TR-FRET formats the signal depends on donor and acceptor labels being close together.

Assay [2] concerns the target VEGFR-2 kinase (Homo sapiens (Human), UniProt P35968). Nature of the assay: Assay of small molecular compounds for inhibiting the activity of VEGFR-2 kinase (LANCE TR-FRET). Type of assay: biochemical. The conditions noted are these: VEGFR-2 tyrosine kinase, 60 min reaction. As to the method: Biological Example 2. Assay of Small Molecular Compounds for Inhibiting the Activity of VEGFR-2 Kinase
as §1, §2, §3
3. Addition of enzyme: 5 μL of 2× VEGFR-2 kinase solution (concentration was 0.5 nM) was taken with a transfer pipette to the corresponding reaction well of the 384-well plate, mixed well and pre-reacted at room temperature for 30 minutes.
4. 2.5 μL 4× Ultra ULight™-JAK-1 (Tyr1023) Peptide (concentration was 200 nM)/ATP (concentration was 40 μM) mixture was taken with a transfer pipette to the corresponding reaction well of the 384-well plate.
as §4
6. Positive control: 2.5 μL/well 4× substrate/ATP mixture, 2.5 μL/well 1× Kinase Assay Buffer containing 16% DMSO, and 5 μL/well 2× VEGFR-2 kinase solution were added to the 384-well plate. The final concentration of DMSO in the reaction system was 4%.
as §5, §6, §7, §8
11. Analysis and processing of the raw data:
The drug concentrations and the corresponding inhibition rates were input into GraphPad Prism5 for calculation, and the inhibition rate of the compounds were calculated as follows: inhibition rate (%)=(reading of positive well−reading of experimental well)/(reading of positive control well−reading of negative control well)×100%. Processing with GraphPad Prism5 software yielded the corresponding IC50 values (the concentration of the compound at which 50% of the highest inhibition of the enzyme is achieved).

In assay [3] the test system is MHCC97H cells. The experiment in a line: Inhibitory activity on the proliferation of MHCC97H cells (CCK-8). Type of assay: cell-based. The following applies: Homo sapiens, MHCC97H cell proliferation, 72 hours of incubation. As to the method: Biological Example 3. Assay of the Inhibitory Activity of Small Molecular Compounds on the Proliferation of MHCC97H Cells
The specific steps of the assay are as follows:
1. Dilution of compounds: a total of 9 concentrations were obtained using a 3-fold gradient dilution from the highest concentration of 5000 nM (the maximum final concentration of the drug used in this assay was 5000 nM, and the minimum final concentration was 0.76 nM).
2. MHCC97H cells were collected, then transferred to a 15 mL centrifuge tube, and centrifuged at 1000 rpm for 5 minutes.
3. The supernatant was discarded, and the complete medium was added and pipetted evenly, 10 μL of cell suspension was taken out and mixed evenly with 10 μL of 0.4% trypan blue, the counting was carried out with a cell counter, and the number and survival rate of cells were recorded;
4. The cell suspension was seeded into a 96-well plate at 5000 cells/80 μL per well;
5. 20 μL of the corresponding 5× compound solution diluted with the medium mentioned above was added to each well and mixed evenly;
6. After 72 hours of incubation, 10 μL of CCK-8 reagent was added to each well and incubated for another 2 hours (the reaction time can be adjusted according to the color depth);
7. The OD value was read at 450 nm on a multi-function plate reader.
8. Data processing: cell survival rate (%)=[(As−Ab)/(Ac−Ab)]*100%
As: OD value of assay well (medium containing cells, CCK-8, compound),
Ac: OD value of control well (medium containing cells, CCK-8),
Ab: OD value of blank well (CCK-8, medium without cell and compound),
The values were then imported into Graphpad Prism5 software for curve fitting, and IC50 was calculated.
Table 3 lists the assay results of the inhibitory activity of some compounds disclosed herein on the proliferation of the MHCC97H cell line.

The values that follow come from US11407760B2, “Dioxinoquinoline compounds, preparation method and uses thereof” (BEIJING SCITECH-MQ PHARMACEUTICALS LIMITED, priority 2018, dated 2022).

The structures appear in SMILES notation. Where only a bound is given, the exact number is not on record here.

The term IC50 denotes the concentration needed to halve the response being measured.

Sequence of c-MET kinase (P08581 25-1390): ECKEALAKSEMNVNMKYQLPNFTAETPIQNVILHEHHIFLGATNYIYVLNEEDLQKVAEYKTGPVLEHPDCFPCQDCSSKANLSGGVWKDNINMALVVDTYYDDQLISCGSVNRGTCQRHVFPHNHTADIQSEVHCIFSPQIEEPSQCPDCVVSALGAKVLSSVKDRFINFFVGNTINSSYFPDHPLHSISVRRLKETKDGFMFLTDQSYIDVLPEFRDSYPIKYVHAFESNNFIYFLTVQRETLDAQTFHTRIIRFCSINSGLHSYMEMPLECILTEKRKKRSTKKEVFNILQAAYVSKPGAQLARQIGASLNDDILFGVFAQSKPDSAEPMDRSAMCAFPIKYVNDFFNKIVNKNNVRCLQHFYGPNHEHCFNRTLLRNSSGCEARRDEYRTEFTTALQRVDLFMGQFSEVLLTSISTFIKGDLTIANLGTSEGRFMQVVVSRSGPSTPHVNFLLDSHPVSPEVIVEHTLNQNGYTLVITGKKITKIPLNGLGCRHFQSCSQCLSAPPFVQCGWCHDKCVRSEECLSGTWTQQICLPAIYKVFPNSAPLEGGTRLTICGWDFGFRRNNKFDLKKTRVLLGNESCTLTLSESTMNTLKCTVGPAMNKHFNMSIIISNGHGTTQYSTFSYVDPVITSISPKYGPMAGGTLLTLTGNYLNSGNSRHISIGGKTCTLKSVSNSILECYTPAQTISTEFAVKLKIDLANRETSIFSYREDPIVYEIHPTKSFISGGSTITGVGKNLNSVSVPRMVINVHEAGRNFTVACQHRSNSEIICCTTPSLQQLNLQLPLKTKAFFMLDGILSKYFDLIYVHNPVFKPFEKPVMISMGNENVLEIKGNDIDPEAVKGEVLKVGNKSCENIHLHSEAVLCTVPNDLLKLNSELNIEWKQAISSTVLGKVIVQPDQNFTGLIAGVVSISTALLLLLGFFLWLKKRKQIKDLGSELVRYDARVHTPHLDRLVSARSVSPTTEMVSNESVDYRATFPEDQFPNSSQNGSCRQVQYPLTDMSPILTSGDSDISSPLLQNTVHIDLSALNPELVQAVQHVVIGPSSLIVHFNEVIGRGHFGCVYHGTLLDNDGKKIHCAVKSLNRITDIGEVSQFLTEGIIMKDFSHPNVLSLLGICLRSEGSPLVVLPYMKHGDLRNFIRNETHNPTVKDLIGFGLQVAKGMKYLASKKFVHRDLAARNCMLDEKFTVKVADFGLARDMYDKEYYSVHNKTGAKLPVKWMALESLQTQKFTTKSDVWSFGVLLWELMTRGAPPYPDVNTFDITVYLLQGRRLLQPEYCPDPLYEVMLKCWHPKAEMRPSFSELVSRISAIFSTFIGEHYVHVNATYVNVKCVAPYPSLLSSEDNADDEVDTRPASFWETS
Sequence of VEGFR-2 kinase (P35968 20-1356): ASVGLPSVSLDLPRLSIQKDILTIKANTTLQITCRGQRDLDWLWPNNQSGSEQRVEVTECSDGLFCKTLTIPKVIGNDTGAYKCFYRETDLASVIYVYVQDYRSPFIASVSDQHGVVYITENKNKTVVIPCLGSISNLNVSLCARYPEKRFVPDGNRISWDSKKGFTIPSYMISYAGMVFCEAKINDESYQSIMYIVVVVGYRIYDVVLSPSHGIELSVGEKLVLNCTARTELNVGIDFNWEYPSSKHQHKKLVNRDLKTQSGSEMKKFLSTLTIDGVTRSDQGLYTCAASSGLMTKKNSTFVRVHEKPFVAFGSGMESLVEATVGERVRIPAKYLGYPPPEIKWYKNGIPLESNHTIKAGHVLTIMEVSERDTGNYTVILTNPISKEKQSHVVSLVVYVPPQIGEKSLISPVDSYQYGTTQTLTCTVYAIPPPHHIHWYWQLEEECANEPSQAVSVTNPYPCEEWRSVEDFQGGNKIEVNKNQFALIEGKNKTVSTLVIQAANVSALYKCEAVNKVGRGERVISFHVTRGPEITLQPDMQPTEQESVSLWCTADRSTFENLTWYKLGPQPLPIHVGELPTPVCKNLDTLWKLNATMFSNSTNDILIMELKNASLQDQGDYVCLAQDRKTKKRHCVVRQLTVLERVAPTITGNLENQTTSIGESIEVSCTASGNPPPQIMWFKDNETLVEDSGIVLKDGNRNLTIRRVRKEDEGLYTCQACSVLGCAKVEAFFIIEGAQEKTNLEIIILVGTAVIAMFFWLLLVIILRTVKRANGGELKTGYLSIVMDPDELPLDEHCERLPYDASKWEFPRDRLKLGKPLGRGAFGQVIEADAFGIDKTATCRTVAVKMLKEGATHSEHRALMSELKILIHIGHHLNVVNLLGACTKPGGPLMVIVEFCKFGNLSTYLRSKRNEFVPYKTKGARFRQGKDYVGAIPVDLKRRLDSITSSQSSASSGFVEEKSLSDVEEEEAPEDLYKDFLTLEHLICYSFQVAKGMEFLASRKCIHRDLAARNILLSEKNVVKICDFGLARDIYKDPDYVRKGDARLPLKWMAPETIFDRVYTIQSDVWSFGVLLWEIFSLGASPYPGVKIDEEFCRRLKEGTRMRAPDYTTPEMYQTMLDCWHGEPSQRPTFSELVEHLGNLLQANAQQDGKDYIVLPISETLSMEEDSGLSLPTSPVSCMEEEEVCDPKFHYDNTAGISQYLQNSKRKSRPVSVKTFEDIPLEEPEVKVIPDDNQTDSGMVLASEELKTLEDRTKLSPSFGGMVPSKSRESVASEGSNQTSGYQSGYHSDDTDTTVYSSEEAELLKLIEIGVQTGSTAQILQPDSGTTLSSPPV

As for `O=C(Nc1ccc(F)cc1)C1(C(=O)Nc2ccc(Oc3ccnc4cc(OCC5CC5)c5c(c34)OCCO5)c(F)c2)CC1` [Example 11, N-(4-((5-(cyclopropylmethoxy)-2,3-dihydro-[1,4]dioxino[2,3-f]quinolin-10-yl)oxy)-3-fluorophenyl)-N-(4-fluorophenyl)cyclopropan-1,1-dicarboxamide], the IC50 in assay [1] was in the range of 50 to 500 nM.
`CC(C)COc1cc2nccc(Oc3ccc(NC(=O)C4(C(=O)Nc5ccc(F)cc5)CC4)cc3F)c2c2c1OCCO2` [Example 12, N-(4-((5-(isobutyloxy)-2,3-dihydro-[1,4]dioxino[2,3-f]quinolin-10-yl)oxy)-3-fluorophenyl)-N-(4-fluorophenyl)cyclopropan-1,1-dicarboxamide]: the half-maximal inhibitory concentration (IC50) in assay [1] was in the range of 50 to 500 nM.
The compound `O=C(Nc1ccc(F)cc1)C1(C(=O)Nc2ccc(Oc3ccnc4cc(OC5CCOCC5)c5c(c34)OCCO5)c(F)c2)CC1` [Example 18, N-(3-fluoro-4-((5-((tetrahydropyran-4-yl)oxy)-2,3-dihydro-[1,4]dioxino[2,3-f]quinolin-10-yl)oxy)phenyl)-N-(4-fluorophenyl)cyclopropan-1,1-dicarboxamide] yielded an IC50 in assay [2] of 50 to 500 nM.
On to `CC(=O)N1CCN(CCCOc2cc3nccc(Oc4ccc(NC(=O)C5(C(=O)Nc6ccc(F)cc6)CC5)cc4F)c3c3c2OCCO3)CC1` [Example 19], for which the IC50 was no more than 50 nM in assay [2], less than 50 nM in assay [3] and no more than 50 nM in assay [1].
In the case of `N#CCOc1cc2nccc(Oc3ccc(NC(=O)C4(C(=O)Nc5ccc(F)cc5)CC4)cc3F)c2c2c1OCCO2` [Example 20, N-(4-((5-(cyanomethoxy)-2,3-dihydro-[1,4]dioxino[2,3-f]quinolin-10-yl)oxy)-3-fluorophenyl)-N-(4-fluorophenyl)cyclopropan-1,1-dicarboxamide], the IC50 was 50 to 500 nM in assay [2] and less than 50 nM in assay [3].
In the case of `O=C(Nc1ccc(F)cc1)C1(C(=O)Nc2ccc(Oc3ccnc4cc(OCCCN5CCCC5)c5c(c34)OCCO5)c(F)c2)CC1` [Example 25, N-(3-fluoro-4-((5-(3-(pyrrolidin-1-yl)propoxy)-2,3-dihydro-[1,4]dioxino[2,3-f]quinolin-10-yl)oxy)phenyl)-N-(4-fluorophenyl)cyclopropan-1,1-dicarboxamide], in assay [3], the IC50 was less than 50 nM.
In turn, `N#CCCCOc1cc2nccc(Oc3ccc(NC(=O)C4(C(=O)Nc5ccc(F)cc5)CC4)cc3F)c2c2c1OCCO2` [Example 26, N-(3-fluoro-4-((5-(3-cyanopropoxy)-2,3-dihydro-[1,4]dioxino[2,3-f]quinolin-10-yl)oxy)phenyl)-N-(4-fluorophenyl)cyclopropan-1,1-dicarboxamide] registered an IC50 in assay [3] of less than 50 nM.
The same measure, in the same setting: to `CN(C)CCCCCCOc1cc2nccc(Oc3ccc(NC(=O)C4(C(=O)Nc5ccc(F)cc5)CC4)cc3F)c2c2c1OCCO2` [Example 27, N-(4-((5-((6-(dimethylamino)hexyl)oxy)-2,3-dihydro-[1,4]dioxino[2,3-f]quinolin-10-yl)oxy)-3-fluorophenyl)-N-(4-fluorophenyl)cyclopropan-1,1-dicarboxamide] belongs less than 50 nM; to `O=C(Nc1ccc(F)cc1)C1(C(=O)Nc2ccc(Oc3ccnc4cc(OC5COC5)c5c(c34)OCCO5)c(F)c2)CC1` [Example 28, N-(3-fluoro-4-((5-(oxetan-3-yloxy)-2,3-dihydro-[1,4]dioxino[2,3-f]quinolin-10-yl)oxy)phenyl)-N-(4-fluorophenyl)cyclopropan-1,1-dicarboxamide], less than 50 nM; to `CC1(C)CCN(CCCOc2cc3nccc(Oc4ccc(NC(=O)C5(C(=O)Nc6ccc(F)cc6)CC5)cc4F)c3c3c2OCCO3)CC1` [Example 29, N-(3-fluoro-4-((5-(3-(4,4-dimethylpiperidin-1-yl)propoxy)-2,3-dihydro-[1,4]dioxino[2,3-f]quinolin-10-yl)oxy)phenyl)-N-(4-fluorophenyl)cyclopropan-1,1-dicarboxamide], less than 50 nM.
On the same count and under the same terms, to `CC1(N)CCN(CCCOc2cc3nccc(Oc4ccc(NC(=O)C5(C(=O)Nc6ccc(F)cc6)CC5)cc4F)c3c3c2OCCO3)CC1` [Example 30, N-(3-fluoro-4-((5-(3-(4-amino-4-methylpiperidin-1-yl)propoxy)-2,3-dihydro-[1,4]dioxino[2,3-f]quinolin-10-yl)oxy)phenyl)-N-(4-fluorophenyl)cyclopropan-1,1-dicarboxamide] belongs less than 500 nM.
Take `O=C(Nc1ccc(F)cc1)C1(C(=O)Nc2ccc(Oc3ccnc4cc(OCCO)c5c(c34)OCCO5)c(F)c2)CC1` [Example 32, N-(3-fluoro-4-((5-(2-hydroxyethoxy)-2,3-dihydro-[1,4]dioxino[2,3-f]quinolin-10-yl)oxy)phenyl)-N-(4-fluorophenyl)cyclopropan-1,1-dicarboxamide]: in assay [3], the IC50 is less than 50 nM.
`NC1(COc2cc3nccc(Oc4ccc(NC(=O)C5(C(=O)Nc6ccc(F)cc6)CC5)cc4F)c3c3c2OCCO3)CC1` [Example 33, N-(4-((5-((1-aminocyclopropyl)methoxy)-2,3-dihydro-[1,4]dioxino[2,3-f]quinolin-10-yl)oxy)-3-fluorophenyl)-N-(4-fluorophenyl)cyclopropan-1,1-dicarboxamide] returned an IC50 in assay [3] of less than 50 nM.
Take `COc1cc2nccc(Oc3cc(Cl)c(NC(=O)C4(C(=O)Nc5ccc(F)cc5)CC4)cc3F)c2c2c1OCCO2` [Example 35, N-(2-chloro-5-fluoro-4-((5-methoxy-2,3-dihydro-[1,4]dioxino[2,3-f]quinolin-10-yl)oxy)phenyl)-N-(4-fluorophenyl)cyclopropan-1,1-dicarboxamide]: in assay [3], the half-maximal inhibitory concentration (IC50) is less than 50 nM.
For `O=C(Nc1ccc(F)cc1)C1(C(=O)Nc2ccc(Oc3ccnc4cc(OCCCN5CCOCC5)c5c(c34)OCCO5)cc2Cl)CC1` [Example 36, N-(2-chloro-4-((5-(3-morpholinopropoxy)-2,3-dihydro-[1,4]dioxino[2,3-f]quinolin-10-yl)oxy)phenyl)-N-(4-fluorophenyl)cyclopropan-1,1-dicarboxamide], the figures for the half-maximal inhibitory concentration (IC50) in assay [2] and in assay [3] were 50 to 500 nM and less than 50 nM, respectively.
